According to publication PMC6328587 (Nature Communications, 2019):
Where two headings read alike, the source gives them in different places.

Legend:
p38δ = molecular target: T1, p38δ (Homo sapiens, UniProt O15264); assay: PROTAC-induced p38δ degradation, western blot in MDA-MB-231 cells; assay type: cell-based
T1 construct: endogenous in cells; host or cells: MDA-MB-231
T1 sequence (O15264 1-365): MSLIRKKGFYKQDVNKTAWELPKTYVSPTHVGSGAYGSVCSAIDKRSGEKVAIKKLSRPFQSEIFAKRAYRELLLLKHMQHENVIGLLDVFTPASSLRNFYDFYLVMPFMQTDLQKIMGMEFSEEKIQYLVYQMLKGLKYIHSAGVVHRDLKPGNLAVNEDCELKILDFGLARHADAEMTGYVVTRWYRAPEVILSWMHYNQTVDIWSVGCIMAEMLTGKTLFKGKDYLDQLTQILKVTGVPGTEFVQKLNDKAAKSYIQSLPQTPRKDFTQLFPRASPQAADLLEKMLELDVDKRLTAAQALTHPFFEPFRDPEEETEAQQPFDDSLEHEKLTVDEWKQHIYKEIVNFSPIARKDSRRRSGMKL
Description: MDA-MB-231 and HeLa cells were obtained from the American Type Culture Collection (ATCC), cultured in RPMI-1640 medium (1 × ) and Dulbecco’s modified Eagle’s medium (DMEM; 1 × ), respectively, containing 10% fetal bovine serum and 1% penicillin–streptomycin and grown in a humidified incubator at 37 °C and 5% CO2.
[…] once with ice-cold PBS (1 × ), followed by lysis in buffer containing 25 mM Tris [pH 7.5], 0.25% sodium deoxycholate, 1% Triton X-100, supplemented with 1X protease inhibitor cocktail (Roche), and phosphatase inhibitors (10 mM NaF, 1 mM Na3VO4, and 20 mM β-glycerophosphate), unless otherwise noted. Lysates were spun at 14,000 × g for 10 min at 4 °C and supernatant was evaluated for protein content using a Pierce BCA Protein Assay (ThermoFisher Scientific). In all experiments, 25–50 μg of protein was loaded onto 10% SDS-PAGE gels or 4–20% Criterion TGX precast gradient gels (Bio-Rad), transferred to nitrocellulose membranes, and probed with the specified antibodies overnight at 4 °C in 1X TBS-Tween (Tris-buffered saline plus 0.02% Tween 20) containing 5% non-fat milk. Immunoblots were visualized using a Bio-Rad ChemiDoc imaging instrument and subsequently processed and quantified using the accompanying Bio-Rad ImageLab software. See Supplementary Figure 8 for uncropped scans of western blots shown in the main text figures.
Western blot data in Figs. 2, 6, and Supplementary Figures 2, 3 were quantified by using the band feature in Image Lab (Bio-Rad). The p38 values were normalized to the α-tubulin signal to account for differences in protein load, and PROTAC-treated normalized values were expressed as a % of the vehicle-treated (no PROTAC) value, which itself was defined as 100% p38 protein level. […] The sigmoidal fit established both the full extent of degradation, or Dmax at the bottom asymptote of the curve, as well as the DC50, which is the inflection point at which 50% of the total degradation observed was reached.

α-tubulin = assay: CETSA in MDA-MB-231 cell lysate, negative control protein; assay type: binding, human; details: 100 µM PROTAC, 51-55 °C, vs DMSO
Description: CETSA protocol was adapted from[60]. In all, 3 × 10^7 MDA-MB-231 cells (1 × 10^7 cells per condition) were collected and resuspended in ice-cold 1X PBS supplemented with 1X protease inhibitor cocktail (Roche) and lysed by three cycles of liquid nitrogen snap freeze, followed by 50% thaw in a room temperature water bath and an additional 50% thaw at 4 °C. After each freeze–thaw cycle, lysate was vortexed briefly to ensure homogenous thawing. Lysate was then cleared for 20 min by centrifugation (14,000 × g at 4 °C) and the soluble fraction was divided into three equal aliquots. The aliquots were treated with vehicle (2.5% DMSO), 100 µM SJFα, or 100 µM SJFδ and incubated at room temperature for 30 min with gentle rotation. Each aliquot was then divided (50 µL) into eight PCR tubes and individually heated at the indicated temperature for 3 min followed by cooling at room temperature for 3 min. After cooling, samples were spun down for 20 min (14,000 × g at 4 °C) and the supernatant (soluble fraction) was analyzed by SDS-PAGE and immunoblotted for p38δ and alpha-tubulin (negative control).

p38δ:PROTAC:VHL = molecular target: T2, p38δ:PROTAC:VHL (Homo sapiens, UniProt O15264+P40337); assay: SPR ternary binding, equimolar p38δ:PROTAC injected onto immobilized VHL; details: for p38δ:PROTAC:VHL t1/2: ternary complex half-life
T2 construct: encoding a region spanning amino acids 1–365; His6 (N); made in house; host or cells: E. coli BL21-CodonPlus(DE3)-RIPL (p38δ); E. coli BL21(DE3) (GST-VBC)
T2 sequence (P40337 whole entry, one chain of several, the tested form may be a part): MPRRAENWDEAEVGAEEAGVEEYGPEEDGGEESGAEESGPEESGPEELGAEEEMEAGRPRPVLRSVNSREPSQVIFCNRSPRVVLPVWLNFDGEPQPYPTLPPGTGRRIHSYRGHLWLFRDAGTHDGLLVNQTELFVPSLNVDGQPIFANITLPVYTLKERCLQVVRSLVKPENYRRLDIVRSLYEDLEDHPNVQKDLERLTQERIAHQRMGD
T2 sequence (Q15370 whole entry partner, one chain of several, the tested form may be a part): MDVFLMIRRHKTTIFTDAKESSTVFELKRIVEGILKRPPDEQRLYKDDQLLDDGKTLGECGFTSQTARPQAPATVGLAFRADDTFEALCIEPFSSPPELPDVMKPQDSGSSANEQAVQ
T2 sequence (Q15369 whole entry partner, one chain of several, the tested form may be a part): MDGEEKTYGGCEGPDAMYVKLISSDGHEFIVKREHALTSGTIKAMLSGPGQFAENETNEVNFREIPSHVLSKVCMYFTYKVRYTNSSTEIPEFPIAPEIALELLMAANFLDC
Description: SPR experiments were conducted on a Biacore 3000 instrument (GE Healthcare) at room temperature. GST antibody was immobilized through direct amination onto a carboxymethylated dextran surface (CM5) and GST-VBC was captured on the CM5 surface. This prepared surface was equilibrated over 3 h in running buffer (10 mM HEPES buffer pH 7.4, 150 mM NaCl, 0.4 mg mL^−1 BSA, 0.005% P20, 2% DMSO). All compounds were prepared in 100% DMSO stock plates with a top concentration of 500 µM in a 3× serial dilution. Compounds were transferred from the stock plate to the assay plate and diluted into running buffer without DMSO. Equimolar concentration of target protein was added to corresponding compound wells. All compounds were run as a 12-point concentration series with a final assay top concentration of 50 µM to measure p38δ:PROTAC and VHL:PROTAC binding and top concentration of 5 µM to measure p38δ:PROTAC:VHL binding. All compounds were injected for 60 s and allowed to dissociate for 300 s. Data analysis was performed in Scrubber 2 (BioLogic Software). Blanks from reference flow cell containing immobilized GST-VBC were subtracted to correct for noise and data were solvent-corrected against a standard DMSO curve. All reported Kd values represent an average of at least two replicates and were obtained by fitting to a minimum of five concentrations using a 1:1 fitting algorithm.

[1] = 0.025-5.0 µM survey, biological duplicates, ± one s.d., Supplementary Table 1
[2] = 0.025-5.0 µM survey, ± one s.d., Supplementary Table 1, read-out: Dmax p38δ (maximum percentage of degradation)
[3] = wider dose response 1 nM-100 µM, Supplementary Figure 3, read-out: Dmax p38δ
[4] = SPR ternary, Replicate 2, read-out: koff
[5] = SPR, ternary, VHL immobilized, read-out: p38δ:PROTAC:VHL koff

SMILES	p38δ downregulation after pre-treatment with 1 µM epoxomicin or 1 µM MLN4924 (p38δ; 250 nM PROTAC, 6 h)	DC50 (p38δ; [1]) [µM]	Dmax (p38δ; [2]) [%]	hook effect in p38δ degradation (p38δ; up to 100 µM)	DC50 (p38δ; wider dose response 1 nM-100 µM, Supplementary Figure 3) [µM]	Dmax (p38δ; [3]) [%]	thermal shift of α-tubulin (α-tubulin)	leftward shift of ternary affinity from the VHL:PROTAC binary affinity (p38δ:PROTAC:VHL; SPR)	koff (p38δ:PROTAC:VHL; [4]) [s⁻¹]	Kd (p38δ:PROTAC:VHL; SPR, Replicate 1) [µM]	Kd (p38δ:PROTAC:VHL; SPR, Replicate 2) [µM]	p38δ:PROTAC:VHL t1/2 (p38δ:PROTAC:VHL; SPR) [s]	kon (p38δ:PROTAC:VHL; SPR, ternary, VHL immobilized) [M⁻¹ s⁻¹]	koff (p38δ:PROTAC:VHL; [5]) [s⁻¹]	ternary affinity weaker than the SJFδ-induced complex (p38δ:PROTAC:VHL; SPR)	koff (p38δ:PROTAC:VHL; SPR ternary, Replicate 1, read-out: koff) [s⁻¹]
COc1cc2c(Oc3ccc(NC(=O)C4(C(=O)Nc5ccc(F)cc5)CC4)cc3F)ccnc2cc1OCCOCCOCCOc1cc(-c2scnc2C)ccc1CNC(=O)[C@@H]1C[C@@H](O)CN1C(=O)[C@H](C(C)C)N1Cc2ccccc2C1=O [SJFδ]	completely rescued	0.0792 ± 0.028	98.4 ± 6.6	no hook effect	0.0462 ± 0.00985	99.4 ± 3.31	thermal shifts were not seen	~ 8 fold	0.017	0.358	0.514	38	39600	0.018		
COc1cc2c(Oc3ccc(NC(=O)C4(C(=O)Nc5ccc(F)cc5)CC4)cc3F)ccnc2cc1OCCCCOCCCCOCC(=O)N[C@H](C(=O)N1C[C@H](O)C[C@H]1C(=O)NCc1ccc(-c2scnc2C)cc1)C(C)(C)C [SJFα]		1.16 ± 2.47	25.1 ± 22.7			18	thermal shifts were not seen		0.082			8	70100	0.072	~ 3 fold	0.083
